Experimental data: US20090216029A1, “PROCESS FOR THE PRODUCTION OF ATORVASTATIN CALCIUM IN AMORPHOUS FORM” (priority 2008, published 2009)
Structures can show the parent of a compound that is named as a salt.

Details: 25° C./60% relative humidity for 3 months
Experimental: • HPLC method: • Column: Kromasil C18, 250×4.6 mm, 5 μm • Mobile phase: • A: 388.5 ml of acetonitrile+31.5 ml of tetrahydrofuran++580 ml of 0.05 molar ammonium dihydrogen orthophosphate solution in water • B: 92.5 ml of acetonitrile+7.5 ml of tetrahydrofuran+300 of methanol++100 ml of 0.05 molar ammonium dihydrogen orthophosphate solution in water • Gradient:

## CC(C)c1c(C(=O)Nc2ccccc2)c(-c2ccccc2)c(-c2ccc(F)cc2)n1CC[C@@H](O)C[C@@H](O)CC(=O)O (relative stereo) [amorphous atorvastatin calcium, [R—(R*,R*)]-2-(4-fluorophenyl)-β,δ-dihydroxy-5-(1-methylethyl)-3-phenyl-4-[(phenylamino)carbonyl]-1H-pyrrole-1-heptanoic acid, calcium salt (2:1)]
  Total impurities and/or degradants after storage: not more than 1.0%
